Laboratory results taken from publication PMC4790851, “Iminosugars Inhibit Dengue Virus Production via Inhibition of ER Alpha-Glucosidases—Not Glycolipid Processing Enzymes” (PLoS Neglected Tropical Diseases, 2016).
Like-named read-outs stand apart in the source and are kept apart here.

How the values were obtained:
DENV2 strain 16681 = assay: In vitro antiviral assay: infectious DENV titer from infected MDMΦs by LLC-MK2 plaque assay; type: cell-based, dengue virus serotype 2; details: Dengue virus, DENV2, LLC-MK2, 48 h, MDMΦs infected with DENV2 MOI 1, drug 48 h, infectious titer by plaque assay; table values with 95% confidence interval in parentheses; read-out: EC50
MDMΦs = assay: Cytotoxicity, MTS cell proliferation assay; type: cell-based, human
Procedure: Cytotoxicity of compounds was assessed by a cell proliferation assay for metabolic activity using a CellTiter 96 AQueous One Solution Cell Proliferation Assay (Promega) as per the manufacturer’s instructions. Briefly, 20 μl of a solution containing tetrazolium compound [3-(4,5-[…])-5-(3-carboxymethoxyphenyl)-2-(4-sulfophenyl)-2H-tetrazolium; MTS] and electron coupling reagent (phenazine ethosulfate) was added to cells covered or suspended in 100 μl of culture medium in a 96-well plate. Samples were incubated for approximately 4 hours (37°C, 5% CO2), and the absorbance at 490 nm (A490) was measured on a SpectraMax M5 microplate reader (Molecular Devices).

[1] = target: T1, Mouse ER α-glucosidase II (Mus musculus, UniProt Q8BHN3); assay: In vitro enzyme inhibition, 4MUG hydrolysis; type: biochemical; details: concentration required to inhibit the enzyme to 50% activity
T1 sequence (Q8BHN3 33-944): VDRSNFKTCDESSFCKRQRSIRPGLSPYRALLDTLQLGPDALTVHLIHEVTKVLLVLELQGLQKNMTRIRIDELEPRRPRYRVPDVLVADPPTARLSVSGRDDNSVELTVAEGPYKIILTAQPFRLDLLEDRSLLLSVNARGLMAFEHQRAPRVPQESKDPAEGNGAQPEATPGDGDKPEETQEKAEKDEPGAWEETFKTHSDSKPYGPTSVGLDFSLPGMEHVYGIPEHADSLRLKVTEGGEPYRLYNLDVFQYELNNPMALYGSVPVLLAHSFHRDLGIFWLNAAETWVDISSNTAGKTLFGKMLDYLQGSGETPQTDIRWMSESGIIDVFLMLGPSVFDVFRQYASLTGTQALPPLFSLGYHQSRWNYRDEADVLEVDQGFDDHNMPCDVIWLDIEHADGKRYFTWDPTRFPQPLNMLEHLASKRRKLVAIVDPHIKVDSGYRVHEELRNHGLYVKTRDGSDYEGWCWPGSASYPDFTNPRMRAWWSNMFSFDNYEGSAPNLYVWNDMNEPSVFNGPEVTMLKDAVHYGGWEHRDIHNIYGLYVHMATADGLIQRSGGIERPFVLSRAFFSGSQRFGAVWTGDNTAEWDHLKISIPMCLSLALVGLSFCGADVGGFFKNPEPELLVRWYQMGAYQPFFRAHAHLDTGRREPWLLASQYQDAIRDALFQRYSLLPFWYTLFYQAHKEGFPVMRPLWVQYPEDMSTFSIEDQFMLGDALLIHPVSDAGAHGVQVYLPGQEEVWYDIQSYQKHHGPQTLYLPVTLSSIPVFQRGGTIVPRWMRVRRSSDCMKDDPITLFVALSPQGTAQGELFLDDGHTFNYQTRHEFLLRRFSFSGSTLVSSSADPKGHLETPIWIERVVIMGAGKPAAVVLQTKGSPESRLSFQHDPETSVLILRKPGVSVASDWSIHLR
T1 sequence (O08795 15-521 partner): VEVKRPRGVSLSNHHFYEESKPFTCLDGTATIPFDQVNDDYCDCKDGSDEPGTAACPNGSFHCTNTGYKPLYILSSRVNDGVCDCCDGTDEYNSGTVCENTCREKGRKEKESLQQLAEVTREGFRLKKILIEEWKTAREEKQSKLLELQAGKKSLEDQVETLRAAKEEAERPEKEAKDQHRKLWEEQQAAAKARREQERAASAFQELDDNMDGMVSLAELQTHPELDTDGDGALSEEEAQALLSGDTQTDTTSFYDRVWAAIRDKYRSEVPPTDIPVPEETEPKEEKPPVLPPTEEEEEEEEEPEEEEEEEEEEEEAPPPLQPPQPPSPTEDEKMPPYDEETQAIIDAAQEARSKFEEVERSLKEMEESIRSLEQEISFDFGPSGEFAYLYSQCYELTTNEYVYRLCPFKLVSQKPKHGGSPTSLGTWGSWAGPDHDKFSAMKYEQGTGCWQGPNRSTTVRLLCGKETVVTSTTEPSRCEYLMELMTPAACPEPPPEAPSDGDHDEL
Procedure: Recombinant Mus musculus ER alpha-glucosidase II inhibition was measured by incubating 20 nM enzyme with various concentrations of inhibitors in 100 mM potassium phosphate pH 7.2 at 37 °C for 5 minutes. Activity was measured by addition of 0.25 mM 4-methylumbelliferyl α-D-glucopyranoside (4MUG) (Sigma Aldrich) in black, non-binding surface-treated microplates (Corning). Fluorescence upon hydrolysis of the 4MUG was measured at λex of 355 nm and λem of 460 nm in a M5 multi-mode plate reader (Molecular Devices) at 37 °C, measuring fluorescence every minute for a total of 30 minutes. The initial velocity was fit in the linear range of measurements, and activity was normalized to the uninhibited control in order to plot activity against the inhibitor concentration. A sigmoidal, four-parameter function with a variable slope was used to determine the EC50 values in Prism (GraphPad).

Rat intestinal maltase = assay: In vitro enzyme inhibition, glucose release from disaccharide; type: biochemical; details: concentration required to inhibit the enzyme to 50% activity
Procedure: Inhibition of glucosidases and glycosidases was detected as previously described. Briefly, assays were performed at the optimum pH of each enzyme, and appropriate disaccharide was provided as substrate for glucosidase release assays. Release of D-glucose was measured using a Glucose B-test (Wako Diagnostics). Appropriate p-nitrophenyl glycoside was added as substrate for additional glycosidase assays, and assays were stopped by adding 400 mM Na2CO3. Release of p-nitrophenol was measured spectrophotometrically at 400 nm.

[2] = target: T2, Rat intestinal isomaltase (Rattus norvegicus, UniProt P23739); assay: as above; type: biochemical
T2 construct: from tissue; host or cells: rat intestine

Rat intestinal sucrase = target: T3, Rat intestinal sucrase (Rattus norvegicus, UniProt P23739); assay: as above; type: biochemical
T3 construct: from tissue; host or cells: rat intestine

[3] = target: Human lysosome α-glucosidase (Homo sapiens, UniProt P10253); assay: In vitro enzyme inhibition; type: biochemical
[4] = target: T4, Human lysosome α-galactosidase (Homo sapiens, UniProt P06280); assay: In vitro enzyme inhibition; type: biochemical
T4 sequence (P06280 32-429): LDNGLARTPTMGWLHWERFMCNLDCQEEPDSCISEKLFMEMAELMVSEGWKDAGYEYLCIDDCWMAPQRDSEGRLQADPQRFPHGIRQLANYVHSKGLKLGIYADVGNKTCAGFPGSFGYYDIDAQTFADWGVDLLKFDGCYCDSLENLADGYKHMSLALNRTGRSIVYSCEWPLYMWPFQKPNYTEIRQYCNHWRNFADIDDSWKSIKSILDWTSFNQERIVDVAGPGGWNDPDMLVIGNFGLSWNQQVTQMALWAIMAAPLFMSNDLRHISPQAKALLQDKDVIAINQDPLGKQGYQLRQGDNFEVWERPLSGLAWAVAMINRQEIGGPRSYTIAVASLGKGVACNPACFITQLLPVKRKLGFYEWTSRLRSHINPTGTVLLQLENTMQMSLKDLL

[5] = test system: monosialodihexosylganglioside (GM3) production; assay: Glycosphingolipid analysis: GM3 levels in MDMΦs by NP-HPLC; type: cell-based, human; details: 48 h, uninfected MDMΦ, normalized to untreated controls, mean ± SD, min. 3 donors
DENV = test system: DENV; set-up: method as in PMID 23070155, PMID 23376501, PMID 22020302, PMID 22867971; details: post-exposure therapeutic administration; cited from earlier work
Glucosyltransferase HL60 = target: T5, Glucosyltransferase HL60 (Homo sapiens, UniProt Q16739); assay: In vitro enzyme inhibition; type: biochemical
T5 construct: endogenous in cells; host or cells: HL60
T5 sequence (Q16739 1-394): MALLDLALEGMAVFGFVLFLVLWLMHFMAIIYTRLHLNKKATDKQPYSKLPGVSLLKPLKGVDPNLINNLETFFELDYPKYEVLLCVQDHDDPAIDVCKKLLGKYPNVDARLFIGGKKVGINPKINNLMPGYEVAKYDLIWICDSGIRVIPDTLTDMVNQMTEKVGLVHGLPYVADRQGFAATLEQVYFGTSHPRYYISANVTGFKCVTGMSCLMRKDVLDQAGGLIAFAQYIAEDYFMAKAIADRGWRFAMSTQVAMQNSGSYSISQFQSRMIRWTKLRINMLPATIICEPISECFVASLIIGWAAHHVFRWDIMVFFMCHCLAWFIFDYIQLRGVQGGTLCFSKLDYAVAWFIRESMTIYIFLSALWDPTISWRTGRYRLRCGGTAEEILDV

[6] = concentration required to inhibit the enzyme to 50% activity, read-out: IC50

T2 sequence (P23739 whole entry): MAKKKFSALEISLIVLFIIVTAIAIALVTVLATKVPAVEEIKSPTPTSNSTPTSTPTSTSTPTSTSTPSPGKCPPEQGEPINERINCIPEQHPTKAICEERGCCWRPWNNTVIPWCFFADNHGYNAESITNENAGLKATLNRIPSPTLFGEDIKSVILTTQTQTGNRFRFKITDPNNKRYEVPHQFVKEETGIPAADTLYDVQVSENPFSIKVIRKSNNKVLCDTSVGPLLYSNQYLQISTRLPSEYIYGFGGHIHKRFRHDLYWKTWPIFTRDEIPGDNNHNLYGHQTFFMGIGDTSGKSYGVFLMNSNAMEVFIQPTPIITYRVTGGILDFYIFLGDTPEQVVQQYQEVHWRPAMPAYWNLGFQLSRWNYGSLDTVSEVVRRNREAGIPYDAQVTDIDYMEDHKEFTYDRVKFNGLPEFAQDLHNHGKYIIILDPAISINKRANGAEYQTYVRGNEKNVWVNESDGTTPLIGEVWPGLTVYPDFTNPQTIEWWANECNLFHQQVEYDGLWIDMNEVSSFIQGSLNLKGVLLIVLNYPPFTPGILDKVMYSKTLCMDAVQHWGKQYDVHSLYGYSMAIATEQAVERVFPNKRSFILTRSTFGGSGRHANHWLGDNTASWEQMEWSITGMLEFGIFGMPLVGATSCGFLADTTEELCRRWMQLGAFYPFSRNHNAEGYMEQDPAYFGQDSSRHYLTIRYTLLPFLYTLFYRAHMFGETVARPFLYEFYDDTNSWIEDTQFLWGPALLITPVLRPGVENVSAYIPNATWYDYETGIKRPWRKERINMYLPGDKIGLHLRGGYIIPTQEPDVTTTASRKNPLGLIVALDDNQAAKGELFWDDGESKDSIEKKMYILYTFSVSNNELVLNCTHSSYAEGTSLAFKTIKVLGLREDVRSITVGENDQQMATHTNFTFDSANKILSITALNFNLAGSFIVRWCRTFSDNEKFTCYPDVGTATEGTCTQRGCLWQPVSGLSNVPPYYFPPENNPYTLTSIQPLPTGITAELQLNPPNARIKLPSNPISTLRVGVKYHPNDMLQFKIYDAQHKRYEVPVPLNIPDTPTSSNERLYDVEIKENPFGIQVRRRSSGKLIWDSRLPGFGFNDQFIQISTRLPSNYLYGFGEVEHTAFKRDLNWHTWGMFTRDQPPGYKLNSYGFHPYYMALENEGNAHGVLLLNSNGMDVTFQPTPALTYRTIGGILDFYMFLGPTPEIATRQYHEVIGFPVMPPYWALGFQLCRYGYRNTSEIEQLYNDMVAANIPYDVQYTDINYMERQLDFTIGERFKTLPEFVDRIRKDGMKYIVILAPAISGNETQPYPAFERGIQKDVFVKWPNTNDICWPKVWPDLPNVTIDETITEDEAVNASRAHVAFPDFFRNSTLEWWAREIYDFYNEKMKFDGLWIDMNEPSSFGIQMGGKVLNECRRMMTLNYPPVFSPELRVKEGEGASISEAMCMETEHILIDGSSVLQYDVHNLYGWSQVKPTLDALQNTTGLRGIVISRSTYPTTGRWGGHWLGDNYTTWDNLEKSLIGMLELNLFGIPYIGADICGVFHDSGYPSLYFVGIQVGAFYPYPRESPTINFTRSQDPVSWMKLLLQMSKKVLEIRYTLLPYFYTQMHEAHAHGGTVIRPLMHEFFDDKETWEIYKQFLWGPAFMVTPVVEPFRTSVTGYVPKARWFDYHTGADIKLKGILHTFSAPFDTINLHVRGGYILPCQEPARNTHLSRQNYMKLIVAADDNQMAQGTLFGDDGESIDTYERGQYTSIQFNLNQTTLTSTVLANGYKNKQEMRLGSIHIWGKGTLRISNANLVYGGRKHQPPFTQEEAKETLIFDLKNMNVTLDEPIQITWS
T3 sequence (P23739 whole entry): as above

SMILES	EC50 (DENV2 strain 16681)	MNTD (maximum non-toxic dose tested) (MDMΦs)	IC50 [1]	IC50 (Rat intestinal maltase)	IC50 [2, 6]	IC50 (Rat intestinal sucrase; [6])	IC50 [3, 6]	IC50 [4, 6]	GM3 production (%) ([5]; 31.6 μM (MNTD))	protection in lethal mouse models of DENV infection (DENV)	IC50 [2]	IC50 (Rat intestinal sucrase)	IC50 [3]	IC50 (Glucosyltransferase HL60)	IC50 [4]	GM3 production (%) ([5]; 100 μM (MNTD))
OC[C@H]1NC[C@H](O)[C@@H](O)[C@@H]1O [DNJ, 1-Deoxynojirimycin]	308 µM	10000 µM	11.4 µM	0.2 µM	0.8 µM	–	–	–	–	–	–	–	–	–	–	–
CCCCCCCCCN1C[C@H](O)[C@@H](O)[C@H](O)[C@H]1CO [NN-DNJ]	1.25 µM	31.6 µM	3.1 µM	0.46 µM	7.3 µM	0.74 µM	0.14 µM	765 µM	5.9 ± 1.2%	–	–	–	–	–	–	–
COCCCCCCCCCN1C[C@H](O)[C@@H](O)[C@H](O)[C@H]1CO [MON-DNJ, N-(9-methoxynonyl)-DNJ]	–	–	–	–	–	–	–	–	–	protection in lethal mouse models	–	–	–	–	–	–
O[C@H]1[C@H](O)[C@@H](O)CN2CC[C@H](O)[C@H]12 [Castanospermine, castanospermine]	36.4 µM	100 µM	58.9 µM	0.37 µM	–	–	–	–	–	–	6.1 µM	0.28 µM	2 µM	> 1000 µM	> 1000 µM	101.6 ± 6.7%
OC[C@H]1NC[C@H](O)[C@@H](O)[C@H]1O [DGJ, 1-deoxygalactonojirimycin]	–	–	> 1000 µM	362 µM	> 1000 µM	340 µM	–	–	–	–	–	–	–	–	–	–
